Oligonucleotides are written 5' to 3', each unit as a sugar letter and its base; * is a phosphorothioate linkage, no mark a phosphodiester; rarer units and linkages stand in square brackets, end groups in braces. Plain capitals give the bases only. Oligonucleotides are given in HELM: sugar(base)linkage, 5' to 3'; d 2'-deoxyribose, r ribose, m 2'-O-methylribose, p phosphate. ss, as = sense and antisense strand; d = 2'-deoxy (DNA); r = 2'-OH (RNA)
The substances below were run against SOST (assay: reporter assay of Huesken 2005). Conditions: siRNA.
Work on “RNA1{r(C)p.r(C)p.r(G)p.r(G)p.r(U)p.r(G)p.r(G)p.r(U)p.r(G)p.r(A)p.r(G)p.r(G)p.r(C)p.r(G)p.r(C)p.r(C)p.r(G)p.r(C)p.r(G)p.d(T)p.d(T)}|RNA2{r(C)p.r(G)p.r(C)p.r(G)p.r(G)p.r(C)p.r(G)p.r(C)p.r(C)p.r(U)p.r(C)p.r(A)p.r(C)p.r(C)p.r(A)p.r(C)p.r(C)p.r(G)p.r(G)p.d(G)p.d(A)}$$$RNA1{StrandType:ss}|RNA2{StrandType:as}$” yielded a normalised inhibition (eCFP-eYFP dual reporter) of 35.8%. For “RNA1{r(C)p.r(A)p.r(A)p.r(G)p.r(U)p.r(G)p.r(C)p.r(A)p.r(A)p.r(G)p.r(C)p.r(G)p.r(C)p.r(C)p.r(U)p.r(C)p.r(A)p.r(C)p.r(C)p.d(T)p.d(T)}|RNA2{r(G)p.r(G)p.r(U)p.r(G)p.r(A)p.r(G)p.r(G)p.r(C)p.r(G)p.r(C)p.r(U)p.r(U)p.r(G)p.r(C)p.r(A)p.r(C)p.r(U)p.r(U)p.r(G)p.d(C)p.d(A)}$$$RNA1{StrandType:ss}|RNA2{StrandType:as}$”, the normalised inhibition (eCFP-eYFP dual reporter) was 68.8%. Work on “RNA1{r(C)p.r(U)p.r(C)p.r(G)p.r(G)p.r(A)p.r(G)p.r(A)p.r(G)p.r(U)p.r(A)p.r(C)p.r(C)p.r(C)p.r(C)p.r(G)p.r(A)p.r(G)p.r(C)p.d(T)p.d(T)}|RNA2{r(G)p.r(C)p.r(U)p.r(C)p.r(G)p.r(G)p.r(G)p.r(G)p.r(U)p.r(A)p.r(C)p.r(U)p.r(C)p.r(U)p.r(C)p.r(C)p.r(G)p.r(A)p.r(G)p.d(C)p.d(T)}$$$RNA1{StrandType:ss}|RNA2{StrandType:as}$” yielded a normalised inhibition (eCFP-eYFP dual reporter) of 44.4%.

The substances below were run against UBE2M (assay: reporter assay of Huesken 2005). Conditions: siRNA.
For “sense rArCrGrUrCrUrGrCrCrUrCrArArCrArUrCrCrUdTdT / antisense rArGrGrArUrGrUrUrGrArGrGrCrArGrArCrGrUdTdG”, the normalised inhibition (eCFP-eYFP dual reporter) was 80.4%. Work on “sense rArUrGrGrUrCrUrArUrCrArCrCrCrCrArArCrAdTdT / antisense rUrGrUrUrGrGrGrGrUrGrArUrArGrArCrCrArUdTdG” yielded a normalised inhibition (eCFP-eYFP dual reporter) of 71.3%. “sense rCrCrGrCrArGrArGrGrUrCrCrUrGrCrArGrArAdTdT / antisense rUrUrCrUrGrCrArGrGrArCrCrUrCrUrGrCrGrGdCdC” showed a normalised inhibition (eCFP-eYFP dual reporter) of 67.1%. “sense rArGrGrArGrGrArGrGrArGrUrCrGrGrCrGrGrGdTdT / antisense rCrCrCrGrCrCrGrArCrUrCrCrUrCrCrUrCrCrUdTdC” gave a normalised inhibition (eCFP-eYFP dual reporter) of 41.7%. Substance “sense rArGrCrUrGrArArCrCrUrGrCrCrCrArArGrArCdTdT / antisense rGrUrCrUrUrGrGrGrCrArGrGrUrUrCrArGrCrUdCdG” has a normalised inhibition (eCFP-eYFP dual reporter) of 71.8%. Substance “sense rGrArUrGrArGrGrGrCrUrUrCrUrArCrArArGrAdTdT / antisense rUrCrUrUrGrUrArGrArArGrCrCrCrUrCrArUrCdAdG” has a normalised inhibition (eCFP-eYFP dual reporter) of 82.7%. In the case of “sense rGrArGrGrArGrUrCrGrGrCrGrGrGrCrGrGrCrAdTdT / antisense rUrGrCrCrGrCrCrCrGrCrCrGrArCrUrCrCrUrCdCdT”, the normalised inhibition (eCFP-eYFP dual reporter) is reported as 59.9%. For “sense rGrGrUrCrUrArUrCrArCrCrCrCrArArCrArUrUdTdT / antisense rArArUrGrUrUrGrGrGrGrUrGrArUrArGrArCrCdAdT”, the normalised inhibition (eCFP-eYFP dual reporter) was 79.7%. Substance “sense rCrUrArCrArArGrArGrUrGrGrGrArArGrUrUrUdTdT / antisense rArArArCrUrUrCrCrCrArCrUrCrUrUrGrUrArGdAdA” has a normalised inhibition (eCFP-eYFP dual reporter) of 87.3%. “sense rGrGrGrCrArGrCrArGrCrArArGrArArGrGrCrGdTdT / antisense rCrGrCrCrUrUrCrUrUrGrCrUrGrCrUrGrCrCrCdTdT” was tested, and the normalised inhibition (eCFP-eYFP dual reporter) was 58.9%. “sense rArGrGrCrCrGrCrArGrArGrGrUrCrCrUrGrCrAdTdT / antisense rUrGrCrArGrGrArCrCrUrCrUrGrCrGrGrCrCrUdCdC” showed a normalised inhibition (eCFP-eYFP dual reporter) of 65.4%. “sense rGrGrCrGrGrCrGrCrArGrCrUrGrCrGrGrArUrCdTdT / antisense rGrArUrCrCrGrCrArGrCrUrGrCrGrCrCrGrCrCdGdA” was tested, and the normalised inhibition (eCFP-eYFP dual reporter) was 71.7%. Work on “sense rCrGrArGrCrUrGrArArCrCrUrGrCrCrCrArArGdTdT / antisense rCrUrUrGrGrGrCrArGrGrUrUrCrArGrCrUrCrGdTdT” yielded a normalised inhibition (eCFP-eYFP dual reporter) of 71.9%. With “sense rCrArGrCrUrUrCrUrCrArGrArUrCrCrArGrArCdTdT / antisense rGrUrCrUrGrGrArUrCrUrGrArGrArArGrCrUrGdAdT” the normalised inhibition (eCFP-eYFP dual reporter) was 79.3%. In the case of “sense rGrGrGrUrGrGrCrUrArCrArUrCrGrGrCrUrCrCdTdT / antisense rGrGrArGrCrCrGrArUrGrUrArGrCrCrArCrCrCdCdG”, the normalised inhibition (eCFP-eYFP dual reporter) is reported as 58.1%. Substance “sense rCrArArCrCrCrCrGrArGrGrArCrCrCrArCrUrGdTdT / antisense rCrArGrUrGrGrGrUrCrCrUrCrGrGrGrGrUrUrGdGdG” has a normalised inhibition (eCFP-eYFP dual reporter) of 62.8%. In the case of “sense rUrCrUrCrUrUrCrUrUrGrGrArGrCrCrCrArArCdTdT / antisense rGrUrUrGrGrGrCrUrCrCrArArGrArArGrArGrAdTdA”, the normalised inhibition (eCFP-eYFP dual reporter) is reported as 69.7%. “sense rUrGrCrArGrArArCrArArCrCrGrGrCrGrGrCrUdTdT / antisense rArGrCrCrGrCrCrGrGrUrUrGrUrUrCrUrGrCrAdGdG” was tested, and the normalised inhibition (eCFP-eYFP dual reporter) was 67.6%. “sense rGrArUrArUrCrArGrCrUrUrCrUrCrArGrArUrCdTdT / antisense rGrArUrCrUrGrArGrArArGrCrUrGrArUrArUrCdAdC” showed a normalised inhibition (eCFP-eYFP dual reporter) of 60.5%. “sense rGrGrUrGrArArGrUrGrUrGrArGrArCrArArUrGdTdT / antisense rCrArUrUrGrUrCrUrCrArCrArCrUrUrCrArCrCdTdT” showed a normalised inhibition (eCFP-eYFP dual reporter) of 81.7%. “sense rGrGrCrCrUrGrCrArGrUrArUrCrUrCrUrUrCrUdTdT / antisense rArGrArArGrArGrArUrArCrUrGrCrArGrGrCrCdAdT” was tested, and the normalised inhibition (eCFP-eYFP dual reporter) was 80.2%. For “sense rGrCrArGrArGrGrUrCrCrUrGrCrArGrArArCrAdTdT / antisense rUrGrUrUrCrUrGrCrArGrGrArCrCrUrCrUrGrCdGdG”, the normalised inhibition (eCFP-eYFP dual reporter) was 69.9%. For “sense rArGrGrGrCrArArCrGrUrCrUrGrCrCrUrCrArAdTdT / antisense rUrUrGrArGrGrCrArGrArCrGrUrUrGrCrCrCrUdCdG”, the normalised inhibition (eCFP-eYFP dual reporter) was 79.5%. For “sense rGrUrGrGrGrCrCrArGrGrGrUrUrArCrCrCrGrCdTdT / antisense rGrCrGrGrGrUrArArCrCrCrUrGrGrCrCrCrArCdCdT”, the normalised inhibition (eCFP-eYFP dual reporter) was 56.4%. With “sense rCrUrUrCrUrArCrArArGrArGrUrGrGrGrArArGdTdT / antisense rCrUrUrCrCrCrArCrUrCrUrUrGrUrArGrArArGdCdC” the normalised inhibition (eCFP-eYFP dual reporter) was 75.9%. Work on “sense rUrUrUrGrUrGrUrUrCrArGrUrUrUrUrArArGrGdTdT / antisense rCrCrUrUrArArArArCrUrGrArArCrArCrArArAdCdT” yielded a normalised inhibition (eCFP-eYFP dual reporter) of 51.1%. With “sense rGrUrCrArUrCrUrGrUrCrCrUrGrArUrGrArGrGdTdT / antisense rCrCrUrCrArUrCrArGrGrArCrArGrArUrGrArCdCdA” the normalised inhibition (eCFP-eYFP dual reporter) was 58.9%. Work on “sense rUrGrArArCrArArGrGrArGrGrCrCrGrCrArGrAdTdT / antisense rUrCrUrGrCrGrGrCrCrUrCrCrUrUrGrUrUrCrAdGdT” yielded a normalised inhibition (eCFP-eYFP dual reporter) of 65.9%. Substance “sense rGrArCrArArUrGrGrUrCrUrArUrCrArCrCrCrCdTdT / antisense rGrGrGrGrUrGrArUrArGrArCrCrArUrUrGrUrCdTdC” has a normalised inhibition (eCFP-eYFP dual reporter) of 61.8%. Work on “sense rGrUrCrCrUrUrArCrGrArUrArArArCrUrCrCrAdTdT / antisense rUrGrGrArGrUrUrUrArUrCrGrUrArArGrGrArCdTdG” yielded a normalised inhibition (eCFP-eYFP dual reporter) of 76.7%. With “sense rCrUrGrArArCrArArGrGrArGrGrCrCrGrCrArGdTdT / antisense rCrUrGrCrGrGrCrCrUrCrCrUrUrGrUrUrCrArGdTdG” the normalised inhibition (eCFP-eYFP dual reporter) was 68.6%. “sense rGrGrCrGrGrCrUrGrUrUrUrGrArGrCrArGrArAdTdT / antisense rUrUrCrUrGrCrUrCrArArArCrArGrCrCrGrCrCdGdG” was tested, and the normalised inhibition (eCFP-eYFP dual reporter) was 76.6%. In the case of “sense rUrArArUrUrUrArUrGrGrCrCrUrGrCrArGrUrAdTdT / antisense rUrArCrUrGrCrArGrGrCrCrArUrArArArUrUrAdTdG”, the normalised inhibition (eCFP-eYFP dual reporter) is reported as 67%. With “sense rCrArUrGrCrGrGrGrGrUrGrGrCrUrArCrArUrCdTdT / antisense rGrArUrGrUrArGrCrCrArCrCrCrCrGrCrArUrGdGdA” the normalised inhibition (eCFP-eYFP dual reporter) was 67.7%. Substance “sense rCrUrGrCrArGrArArCrArArCrCrGrGrCrGrGrCdTdT / antisense rGrCrCrGrCrCrGrGrUrUrGrUrUrCrUrGrCrArGdGdA” has a normalised inhibition (eCFP-eYFP dual reporter) of 64.1%. Substance “sense rArGrUrCrGrGrCrGrGrGrCrGrGrCrArCrCrArAdTdT / antisense rUrUrGrGrUrGrCrCrGrCrCrCrGrCrCrGrArCrUdCdC” has a normalised inhibition (eCFP-eYFP dual reporter) of 73.6%. For “sense rArGrUrCrCrUrUrArCrGrArUrArArArCrUrCrCdTdT / antisense rGrGrArGrUrUrUrArUrCrGrUrArArGrGrArCrUdGdG”, the normalised inhibition (eCFP-eYFP dual reporter) was 60.6%. Work on “sense rArUrCrUrCrUrUrCrUrUrGrGrArGrCrCrCrArAdTdT / antisense rUrUrGrGrGrCrUrCrCrArArGrArArGrArGrArUdAdC” yielded a normalised inhibition (eCFP-eYFP dual reporter) of 77.1%. “sense rArArCrGrUrGrCrArGrCrGrCrUrCrCrArUrGrCdTdT / antisense rGrCrArUrGrGrArGrCrGrCrUrGrCrArCrGrUrUdCdT” showed a normalised inhibition (eCFP-eYFP dual reporter) of 61.2%. Substance “sense rGrUrUrCrArGrUrUrUrUrArArGrGrUrGrGrGrCdTdT / antisense rGrCrCrCrArCrCrUrUrArArArArCrUrGrArArCdAdC” has a normalised inhibition (eCFP-eYFP dual reporter) of 53.9%. “sense rGrGrCrCrGrCrArGrArGrGrUrCrCrUrGrCrArGdTdT / antisense rCrUrGrCrArGrGrArCrCrUrCrUrGrCrGrGrCrCdTdC” was tested, and the normalised inhibition (eCFP-eYFP dual reporter) was 66.4%. For “sense rCrUrUrCrArArGrCrUrGrGrUrCrArUrCrUrGrUdTdT / antisense rArCrArGrArUrGrArCrCrArGrCrUrUrGrArArGdTdT”, the normalised inhibition (eCFP-eYFP dual reporter) was 77%. In the case of “sense rArGrGrCrGrUrCrGrGrCrGrGrCrGrCrArGrCrUdTdT / antisense rArGrCrUrGrCrGrCrCrGrCrCrGrArCrGrCrCrUdTdC”, the normalised inhibition (eCFP-eYFP dual reporter) is reported as 51.7%. “sense rArArGrArGrUrGrGrGrArArGrUrUrUrGrUrGrUdTdT / antisense rArCrArCrArArArCrUrUrCrCrCrArCrUrCrUrUdGdT” was tested, and the normalised inhibition (eCFP-eYFP dual reporter) was 85.1%.
Also: test concentration or dose not given here.
